In ChEMBL document CHEMBL4680314, “Discovery of potent glycogen synthase kinase 3/cholinesterase inhibitors with neuroprotection as potential therapeutic agent for Alzheimer's disease” (Bioorg Med Chem, 2021):

Columns and labels:
Cholinesterase = Cholinesterase (Homo sapiens, UniProt P06276); test: Inhibition of human BChE using butyrylthiocholineiodide as substrate incubated for 10 mins by Ellman's method
[1] = target: Glycogen synthase kinase-3 beta (Homo sapiens, UniProt P49841); test: biochemical
Chain of Glycogen synthase kinase-3 beta (P49841 whole entry): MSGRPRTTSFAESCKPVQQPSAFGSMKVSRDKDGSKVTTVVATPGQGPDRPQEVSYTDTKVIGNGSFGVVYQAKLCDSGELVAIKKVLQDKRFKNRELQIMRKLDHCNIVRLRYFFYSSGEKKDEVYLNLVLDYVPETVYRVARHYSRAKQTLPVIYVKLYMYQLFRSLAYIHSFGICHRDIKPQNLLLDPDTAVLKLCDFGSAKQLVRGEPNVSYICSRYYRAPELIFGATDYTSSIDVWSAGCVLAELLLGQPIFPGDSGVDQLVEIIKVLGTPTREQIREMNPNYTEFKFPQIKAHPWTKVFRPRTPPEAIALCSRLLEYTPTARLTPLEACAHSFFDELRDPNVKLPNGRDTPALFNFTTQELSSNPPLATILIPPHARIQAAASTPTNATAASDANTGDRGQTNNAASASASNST
Description: Inhibition of recombinant human N-terminal His6-tagged GSK3beta H350L mutant expressed in baculovirus infected Sf21 cells using prephosphorylated polypeptide as substrate incubated for 1 min followed by substrate addition and measured after 30 mins by Kinase-Glo luminescence assay

Acetylcholinesterase = Acetylcholinesterase (Homo sapiens, UniProt P22303); test: Inhibition of human recombinant AChE expressed in HEK293 cells using acetylthiocholine iodide as substrate incubated for 10 mins by Ellman's method; type: cell-based
Chain of Acetylcholinesterase (P22303 whole entry): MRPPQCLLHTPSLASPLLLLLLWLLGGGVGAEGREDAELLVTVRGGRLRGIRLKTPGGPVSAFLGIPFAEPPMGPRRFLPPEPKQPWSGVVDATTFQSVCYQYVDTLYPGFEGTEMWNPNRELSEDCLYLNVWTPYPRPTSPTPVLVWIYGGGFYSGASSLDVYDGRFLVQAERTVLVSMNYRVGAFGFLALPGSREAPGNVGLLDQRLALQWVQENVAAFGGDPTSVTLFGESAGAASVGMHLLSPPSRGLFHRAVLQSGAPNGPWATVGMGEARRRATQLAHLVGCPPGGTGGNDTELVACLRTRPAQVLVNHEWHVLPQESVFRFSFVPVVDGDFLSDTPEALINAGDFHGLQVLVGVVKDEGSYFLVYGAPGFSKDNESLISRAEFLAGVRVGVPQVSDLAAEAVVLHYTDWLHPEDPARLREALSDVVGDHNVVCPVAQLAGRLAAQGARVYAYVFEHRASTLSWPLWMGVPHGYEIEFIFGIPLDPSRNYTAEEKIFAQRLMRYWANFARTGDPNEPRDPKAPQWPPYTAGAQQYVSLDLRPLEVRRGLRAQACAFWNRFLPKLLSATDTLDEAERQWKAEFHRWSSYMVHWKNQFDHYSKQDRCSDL

in vitro = conditions: PAMPA
Description: Effective permeability of compound in PBS/EtOH buffer (7:3) at 25 ug/ml incubated for 18 hrs by PAMPA-BBB assay

Chain of Cholinesterase (P06276 whole entry): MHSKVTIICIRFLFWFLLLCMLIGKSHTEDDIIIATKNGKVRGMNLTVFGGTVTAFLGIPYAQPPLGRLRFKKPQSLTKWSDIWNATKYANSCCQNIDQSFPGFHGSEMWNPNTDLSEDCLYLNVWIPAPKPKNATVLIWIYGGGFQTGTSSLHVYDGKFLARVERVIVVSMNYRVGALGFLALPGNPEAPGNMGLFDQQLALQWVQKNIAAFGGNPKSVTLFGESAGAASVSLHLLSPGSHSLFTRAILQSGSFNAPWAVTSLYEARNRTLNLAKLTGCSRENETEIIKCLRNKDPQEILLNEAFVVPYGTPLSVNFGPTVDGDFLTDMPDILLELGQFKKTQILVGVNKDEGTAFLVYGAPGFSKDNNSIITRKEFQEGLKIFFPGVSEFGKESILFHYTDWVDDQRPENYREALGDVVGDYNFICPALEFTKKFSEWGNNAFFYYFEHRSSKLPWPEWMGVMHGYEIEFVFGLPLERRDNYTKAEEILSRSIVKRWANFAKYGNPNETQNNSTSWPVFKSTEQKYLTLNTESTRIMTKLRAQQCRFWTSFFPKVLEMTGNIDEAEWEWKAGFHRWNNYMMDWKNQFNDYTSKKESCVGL

Structure (SMILES)	IC50 (Cholinesterase) [µM]	IC50 [1] [µM]	IC50 (Acetylcholinesterase) [µM]	Papp at 18 h, 25 ug/ml (in vitro) [×10⁻⁶ cm/s]
CNC(=O)c1sc(-c2ccnc(NC(=O)C3CC3)c2)nc1OCC1CCN(Cc2cccc(Br)c2)CC1	15	0.049	394	
NC(=O)c1sc(-c2ccnc(NC(=O)C3CC3)c2)nc1OCCC1CCN(Cc2ccccc2Cl)CC1	301	0.027	3.7	6.8
CNC(=O)c1sc(-c2ccnc(NC(=O)C3CC3)c2)nc1OCC1CCN(Cc2ccc(Br)cc2)CC1	68	0.026	> 1000	
CNC(=O)c1sc(-c2ccnc(NC(=O)C3CC3)c2)nc1OCC1CCN(Cc2ccccc2)CC1	14	0.016	8	
NC(=O)c1sc(-c2ccnc(NC(=O)C3CC3)c2)nc1OCCC1CCN(Cc2ccccc2F)CC1	41	0.261	7.8	
NC(=O)c1sc(-c2ccnc(NC(=O)C3CC3)c2)nc1O	> 1000	0.011	> 1000	
NC(=O)c1sc(-c2ccnc(NC(=O)C3CC3)c2)nc1OCCC1CCN(Cc2c(F)cccc2F)CC1	1.9	0.005	19.5	6.8
CCn1cc(C(=O)O)c(=O)c2cc(F)c(N3CCNC(C)C3)c(F)c21 (centres undefined) [LOMEFLOXACIN]				0.9
CNC(=O)c1sc(-c2ccnc(NC(=O)C3CC3)c2)nc1OCC1CCN(Cc2cccc([N+](=O)[O-])c2)CC1	9	0.005	6	
NC(=O)c1sc(-c2ccnc(NC(=O)C3CC3)c2)nc1OCCC1CCN(Cc2ccccc2)CC1	15.3	0.019	0.73	8.8
CCn1cc(C(=O)O)c(=O)c2ccc(-n3cccc3)cc21				2.5
CNC(=O)c1sc(-c2ccnc(NC(=O)C3CC3)c2)nc1OCC1CCN(Cc2ccc(Cl)c(Cl)c2)CC1	65	0.041	97	
NC(=O)c1sc(-c2ccnc(NC(=O)C3CC3)c2)nc1OCCC1CCN(Cc2cccc(F)c2)CC1	295	0.026	4.7	7
